Test results taken from ChEMBL document CHEMBL3507680, “University of Dundee, Gates Library screen for HepG2 cell viability”.

Experiment: Human HepG2 cell viability assay in 384 well format
Type: toxicity, cell-based
Set-up: dose 125 nL, time 70.5 hour; concentration not given beside the values
Settings: HepG2 cells, read-out: Inhibition

COc1ccc(Cl)cc1-c1cc(NC(=O)C2COCCO2)[nH]n1 (stereo unspecified)
cytotoxicity at 70.5 h: -4.84%

Cc1ccc(-c2nnc(CN3CCNC(=O)C3)o2)cc1
cytotoxicity at 70.5 h: -4.25%

CN(C)CCN(Cc1cccc(C(F)(F)F)c1)C(=O)c1cc[nH]n1
cytotoxicity at 70.5 h: -3.41%

CN(C)C(C(=O)N1CCN(CCn2cccc2)CC1)c1cccc(F)c1 (stereo unspecified)
cytotoxicity at 70.5 h: 2.13%

CCNC(=O)[C@@H]1C[C@H](N)CN1Cc1ccc(Sc2ccc(C)cc2)o1
cytotoxicity at 70.5 h: -13.8%

CC(NC(=O)COCC(F)(F)F)c1nnc2n1CCCCC2 (stereo unspecified)
cytotoxicity at 70.5 h: -16.3%

CN1CC2(CCCN(c3nc(N)nc4c3CCCC4)C2)OC1=O (stereo unspecified)
cytotoxicity at 70.5 h: -10.1%

COc1ccccc1CNC(=O)c1ccccc1-n1cnc(CN)c1
cytotoxicity at 70.5 h: -9.04%

O=C(c1cccs1)N1CCC2(C1)c1ccccc1S(=O)(=O)N2CC1CC1 (stereo unspecified)
cytotoxicity at 70.5 h: -3.76%

CCc1nc2n(n1)CCCC2Nc1nc(C(C)C)ns1 (stereo unspecified)
cytotoxicity at 70.5 h: -9.57%

O=C(c1ccc2cccc(F)c2n1)N1CCN(CCn2cncn2)CC1
cytotoxicity at 70.5 h: -9.3%

COC(=O)CCC(=O)N1CCC2(CN(Cc3cccc(F)c3)C2)C1
cytotoxicity at 70.5 h: 0.281%

CCCc1n[nH]c(C2CN(C(=O)c3ccnc(C4CC4)n3)CCO2)n1 (stereo unspecified)
cytotoxicity at 70.5 h: -1.45%

CC(C)CS(=O)(=O)N1CCC2(CC1)CCn1c(-c3cnn(C)c3)cnc12
cytotoxicity at 70.5 h: 32.9%

O=C1CCCCCN1Cc1nc(C2(c3ccc(F)cc3)CCOC2)no1 (stereo unspecified)
cytotoxicity at 70.5 h: 18.4%

Cc1nc(C)n(C2CCCN(C(=O)c3ccc(O)nc3)C2)n1 (stereo unspecified)
cytotoxicity at 70.5 h: -5.29%

Cc1cc(C)n(CC2(CNC(=O)C(c3ccc(F)cc3)N(C)C)CC2)n1 (stereo unspecified)
cytotoxicity at 70.5 h: -1.88%

CC(=O)NCC1CCN(C(=O)c2csc(-c3ccc(C)cc3C)n2)CC1
cytotoxicity at 70.5 h: -10.6%

CN1C(=O)CC(c2cnn(C)c2)C12CCN(C(=O)c1ccnnc1)CC2 (stereo unspecified)
cytotoxicity at 70.5 h: -9.97%

Cc1cnn(CC2CN(Cc3csc(C(C)C)n3)CCO2)c1 (stereo unspecified)
cytotoxicity at 70.5 h: 20.8%

Cc1cnn(CC2CCCN2Cc2noc(C3CC3)n2)c1 (stereo unspecified)
cytotoxicity at 70.5 h: 0.359%

CCc1nc(CNCC2CCCN2c2cccnn2)cs1 (stereo unspecified)
cytotoxicity at 70.5 h: -6.05%

CCc1ccc(CN2CC[C@H]3[C@H]2CC(=O)N3Cc2cccc(C)n2)o1
cytotoxicity at 70.5 h: -7.64%

CC1CCN(S(=O)(=O)N2CCc3sccc3C2)CC1
cytotoxicity at 70.5 h: 45%

CS(=O)(=O)NCC(Cc1cccc(F)c1)N1CCNC1=O (stereo unspecified)
cytotoxicity at 70.5 h: -13.3%

COc1cccc(CN2CC[C@H](c3nnc(C)o3)C2)c1
cytotoxicity at 70.5 h: 2.22%

NC1CCCN(C(=O)c2csc(-c3ccc(C(F)(F)F)cc3)n2)CC1 (stereo unspecified)
cytotoxicity at 70.5 h: 36.2%

CC(C)c1nc(CN2CCCN(Cc3nccn3C)CC2)no1
cytotoxicity at 70.5 h: 18.1%

CNS(=O)(=O)CC(=O)N1CC2(CCCC2)c2c(F)cccc21
cytotoxicity at 70.5 h: 0.789%

O=C(CCc1n[nH]c2c1CCCC2)N1C[C@@H]2CC[C@H](C1)N(CC1CC1)C2
cytotoxicity at 70.5 h: -7.45%

CC(C)N(Cc1ccc(C#N)cc1)C(=O)NCCNc1ncccn1
cytotoxicity at 70.5 h: -12.7%

Cc1ccoc1C(=O)NCC(c1ccccc1Cl)N1CCOCC1 (stereo unspecified)
cytotoxicity at 70.5 h: -1.62%

Cc1cnc(N2CCOCC3(CCN(c4ccccn4)C3)C2)nc1 (stereo unspecified)
cytotoxicity at 70.5 h: -9.64%

COc1nn(C)cc1C(=O)N1CCC(c2nnc(-c3ccsc3)o2)CC1
cytotoxicity at 70.5 h: -6.31%

COc1cc(C(=O)NC(C)c2cccs2)cc2c1OCCO2 (stereo unspecified)
cytotoxicity at 70.5 h: -9.64%

Cc1ccc(C(=O)NC2CCN(CC(=O)N(C)c3ccccc3)CC2)o1
cytotoxicity at 70.5 h: -4.99%

CC(=O)N1CCC(c2nnc3ccc(C(=O)NCCN(C)C)cn23)C1 (stereo unspecified)
cytotoxicity at 70.5 h: -10.5%

CC(C)N(C)S(=O)(=O)NCc1cccnc1N(C)C
cytotoxicity at 70.5 h: -4.22%

CCCS(=O)(=O)NC(C)C(=O)NCc1ccc(N2CCCC2)nc1 (stereo unspecified)
cytotoxicity at 70.5 h: -7.44%

CCCc1noc(CN(C)C(=O)C2COc3ccccc3C2)n1 (stereo unspecified)
cytotoxicity at 70.5 h: -16.1%

Cc1cc(C(=O)NCCC2CN(C)CCO2)c2cccc(C)c2n1 (stereo unspecified)
cytotoxicity at 70.5 h: -11.4%

Cc1ccoc1C(=O)N1CCO[C@H]2[C@H](OCC3CCOCC3)CC[C@@H]21
cytotoxicity at 70.5 h: -15%

COc1c(C2CCCN2C(=O)c2csc(C3CC3)n2)c(C)nn1C (stereo unspecified)
cytotoxicity at 70.5 h: 15.2%

O=C(NCCOCCO)c1cnc(-c2ccccc2)nc1O
cytotoxicity at 70.5 h: -7.84%

O=C(CCc1ccccc1)NCC(O)c1c(F)cccc1F (stereo unspecified)
cytotoxicity at 70.5 h: -3.12%

COc1cccc([C@H]2CN(C(=O)c3ccccc3)[C@@H]3CCCN[C@H]23)c1
cytotoxicity at 70.5 h: 15.6%

Cc1ccccc1OCCN1CCn2c(C)nnc2C1
cytotoxicity at 70.5 h: 25.1%

O=C(c1ccc(Cl)s1)N1CC(c2nc(-c3ccc[nH]c3=O)no2)C1
cytotoxicity at 70.5 h: -8.84%

CC(=O)NC1CCN(C(=O)Nc2cccc(C(F)(F)F)c2)CC1
cytotoxicity at 70.5 h: 20.6%

CCc1ccc2nc(NCCCN(CCO)CCO)cc(C)c2c1
cytotoxicity at 70.5 h: -3.69%

Cc1cnc(C(=O)N2CCCC(c3c(C)c(=O)nc4n3CCC4)C2)cn1 (stereo unspecified)
cytotoxicity at 70.5 h: -7.55%

CN(CC1(C)COC1)C(=O)c1cc(-c2ccnn2C)nc2ccccc12
cytotoxicity at 70.5 h: -0.845%

CC(C)c1noc(CN2CCCC2c2noc(C(C)C)n2)n1 (stereo unspecified)
cytotoxicity at 70.5 h: -9.32%

CC(NC(=O)C1=NN(C)C(=O)CC1)c1ccc(Cl)cc1Cl (stereo unspecified)
cytotoxicity at 70.5 h: -3.67%

Cc1nc(CN2CCC(N3CCN(C)C3=O)CC2)no1
cytotoxicity at 70.5 h: 18%

CC(c1cccc(Cl)c1)N1CCN(S(C)(=O)=O)CC1 (stereo unspecified)
cytotoxicity at 70.5 h: -1.61%
